We go through two molecules from patent US6008209A, “Method of using vitamin D3 analogs with bis C-20 side chains” (Hoffmann-La Roche Inc., priority 1998, dated 1999).

Series [1] has as its system parathyroid hormone (serum PTH). The experiment in a line: Serum PTH suppression in rat renal insufficiency model (7/8 nephrectomy, secondary hyperparathyroidism). Particulars: for PTH T = 1 - T = 0: po, seven days. The format is in vivo, Female Sprague Dawley rats. Here is the method:
(§1) Female Sprague Dawley rats were anesthesized, their right kidney removed and 2-3 branches of the left renal artery were ligated to achieve 7/8 nephrectomy. They were placed on a high phosphorous diet (0.6% Ca and 0.8 phosphorous). Approximately 3-6 weeks after surgery, rats were bled to screen serum PTH levels and rats with PTH levels between 100-500 pg/ml were selected for the study.
(§2) 1 6 Formula Ia, 10 μg/kg/day, po
(§3) 2 6 Formula Ia, 1 μg/kg/day, po
(§4) 3 6 Formula Ia, 0.1 μg/kg/day, po
(§5) There was a pre-bleed (T=0) and each group was dosed daily for seven days by oral gavage with either the compound of Formula Ia (10, 1 or 0.1 μg/kg/day), vehicle control or 1,24(OH)2 vitamin D3 positive control. Compounds were predissolved in ethanol and diluted with vehicle (Miglyol 812) followed by evaporation of the ethanol.
(§6) After the last day of dosing, the animals were bled again (T=1) and sacrificed. Serum PTH assays were done with Nichols Institute Diagnostic Kit #40-2240. Serum calcium assays were done with Sigma Diagnostic Kit #587 with o-cresophthaleiri. Serum creatinine assays were done with Sigma Diagnostic Kit #1600-320 with […].

The test system of a further series is PTH synthesis. Particulars: cited from earlier work.
The subject of the next series is MCF-7 cells. The experiment in a line: Cell proliferation assay in MCF-7 breast cancer cells. The format is cell-based, human. Particulars: for IC50: Homo sapiens, MCF7, 168 h, MCF-7, 7 days, MTT, read-out: IC50 (half-maximal reduction in 570 nm absorbance). The procedure: MCF-7 cells are human mammary carcinoma cells that are positive for estrogen receptors. The potential activity of vitamin D3 analogs against breast cancer was assessed from inhibition of proliferation of MCF-7 cells in culture.
MCF-7 cells were plated at 5000 cells/well in 96-well plates and incubated at 37° C. in 5% CO2 /95% air in Dulbecco's Modified Eagle Medium containing 10% fetal bovine serum 700 nM insulin, 2 mM glutamine, 0.1 mM MEM non-essential amino acids and 1 mM sodium pyruvate. Stock solutions of vitamin D3 analogs were prepared at a concentration of 10 mM in absolute ethanol and stored at -20° C. under argon. One day after plating, MCF-7 cells were refed with either control medium or medium containing varying concentrations of the vitamin D3 analog.
For each vitamin D3 analog, the IC50 value was determined from a graph relating the optical density at 570 nm to the concentration used. The IC50 value was defined as the concentration of the vitamin D3 analog corresponding to half-maximal reduction in 570 nm absorbance.

In a further series the test system is ZR-75 cells. Briefly: Cell proliferation assay in ZR-75 breast cancer cells. The format is cell-based, human. Particulars: for IC50: Homo sapiens, ZR75, 240 h, ZR-75, 10 days, MTT, read-out: IC50 (half-maximal reduction in 570 nm absorbance). Here is the method: ZR-75 cells are human mammary carcinoma cells that are positive for estrogen receptors. The potential activity of vitamin D3 analogs against breast cancer was assessed from inhibition of proliferation of ZR-75 cells in culture.
ZR-75 cells were plated at 12,500 cells/well in 24-well plates and incubated at 37° C. in 5% CO2 /95% air in RPMI medium containing 10% fetal bovine serum and 2 mM glutamine. Stock solutions of vitamin D3 analogs were prepared at a concentration of 10 mM in absolute ethanol and stored at -20° C. under argon. One day after plating, ZR-75 cells were refed with either control medium or medium containing varying concentrations of the vitamin D3 analog.
The IC50 value was defined as the concentration of the vitamin D3 analog corresponding to half-maximal reduction in 570 nm absorbance.

Series [2] deals with postmenopausal osteoporosis. Particulars: cited from earlier work.
The test system of series [3] is steroid-induced bone loss. Particulars: 0.5 to 1.0 micrograms/day plus calcium 1000 mg/day, with or without intranasal calcitonin 400 IU/day; cited from earlier work.
The test system of another series is bone. As to conditions: animal studies; cited from earlier work.
In another series the test system is murine leukemia. Particulars: murine leukemia model systems; cited from earlier work.
For series [4] the following is noted: cited from earlier work.
A short description of series [5]: Serum calcium in rat renal insufficiency model (7/8 nephrectomy). The format is in vivo, Female Sprague Dawley rats. Further details: Final Ca Levels: unit not given here. As to conditions: for Final Ca Levels: po, seven days, serum. The procedure:
as §1, §2, §3, §4, §5, §6

SMILES strings stand for the structures.

The term IC50 denotes the concentration at which inhibition is half-maximal. With `C=C1/C(=C\C=C2/CCC[C@]3(C)[C@@H]([C@H](C)CCCC(C)(C)O)CC[C@@H]23)C[C@@H](O)C[C@@H]1O` [1,25(OH)2 vit. D3, 1,25-Dihydroxy-cholecalciferol], the “PTH T = 1 - T = 0” value in series [1] (0.1 μg/kg (table 2; table 1: 0.2 μg/kg/day)) was -66 pg/mL. Further, the “suppressive action on PTH synthesis” value in the series with PTH synthesis is “direct suppressive action on PTH synthesis”. Further, the IC50 turned out to be 40 nM with MCF-7 cells and 13 nM with ZR-75 cells. Further, in [2] (0.25 microgram twice daily, 3 years, mild to moderate disease), the “lower rate of new vertebral fractures versus elemental calcium 1000 mg/day” value is listed as 3 fold. Moreover, in series [2] (at recommended dosages), the hypercalcaemia result was “infrequent and mild”. Besides, in series [2] (human, in vivo), the “therapeutic window: proximity of therapeutic and toxic doses” value is “close proximity of therapeutic and toxic doses”. In addition, the tolerability result in series [2] (overall) is “well tolerated”. For the same molecule, in series [3], the steroid-induced bone loss result was “prevented steroid-induced bone loss”. For the same molecule, in the series on bone, the bone anabolic activity entry is on record as “suggested bone anabolic activity”. The “anti-proliferative and differentiating effect” value in the series with murine leukemia is listed as “not only an anti-proliferative effect, but also a differentiating effect”. Also, the hypercalcemia in vivo entry in [4] (high dose treatment) is given as “hypercalcemia observed with high dose treatment”. Moreover, in [4] (human usage), the therapeutic ratio result was “poor therapeutic ratio (hypercalciuria and hypercalcemia as well as nephrotoxicity)”. For the same molecule, the hypercalcemic effects entry in series [4] (narrow therapeutic window, especially at high doses) is “potent hypercalcemic effects”.

`C=C1/C(=C\C=C2/CCC[C@]3(C)[C@@H](C(CCCC(C)(C)O)CCCC(C)(C)O)CC[C@@H]23)C[C@@H](O)C[C@@H]1O` [Formula Ia, (1α,3β,5Z,7E)-21-(3-hydroxy-3-methylbutyl)-9,10-Secocholesta-5,7,10, (19)-triene-1,3,25-triol]: the “PTH T = 1 - T = 0” value was 112 pg/mL in [1] (0.1 μg/kg/day), -124 pg/mL in series [1] (1 μg/kg/day) and -132 pg/mL in series [1] (10 μg/kg/day). In [1] (in words), the “suppressing the elevated levels of parathyroid hormone, versus 1,25(OH)2 vit. D3” value is on record as “more effective than 1,25(OH)2 vit. D3”. For the same molecule, the IC50 with MCF-7 cells came to 0.8 nM; in the series on ZR-75 cells, 0.3 nM. Besides, in the series with MCF-7 cells (MCF-7), the “potency relative to 1,25-dihydroxy-cholecalciferol in inhibition of MCF-7 growth” value is reported as “approximately 50 times”. Further, the “potency relative to 1,25-dihydroxy-cholecalciferol in inhibition of ZR-75 growth” value in the series with ZR-75 cells (ZR-75) is “more than 40 times”. Besides, the “Final Ca Levels” value in series [5] (0.1 μg/kg/day) was 10.20; in series [5] (1 μg/kg/day) it was 10.35; in series [5] (10 μg/kg/day), 11.97. For the same molecule, the elevated calcium levels result in series [5] (in words) was “without causing elevated calcium levels”.
